Reference: US6908935B2, “Calcium receptor modulating agents” (Amgen Inc., priority 2002, dated 2005)

molecular target: T1, human parathyroid cell Ca^2+ receptor (hPCaR) (Homo sapiens, UniProt P41180); assay: [Ca2+]i measurement with fluo-3 in HEK 293 4.0-7 cells stably transfected with hPCaR; assay type: cell-based; details: fluo-3 fluorescence (485/530 nm), effect on [Ca^2+]i
T1 construct: expressed in transfected cells
T1 sequence (P41180 20-1078): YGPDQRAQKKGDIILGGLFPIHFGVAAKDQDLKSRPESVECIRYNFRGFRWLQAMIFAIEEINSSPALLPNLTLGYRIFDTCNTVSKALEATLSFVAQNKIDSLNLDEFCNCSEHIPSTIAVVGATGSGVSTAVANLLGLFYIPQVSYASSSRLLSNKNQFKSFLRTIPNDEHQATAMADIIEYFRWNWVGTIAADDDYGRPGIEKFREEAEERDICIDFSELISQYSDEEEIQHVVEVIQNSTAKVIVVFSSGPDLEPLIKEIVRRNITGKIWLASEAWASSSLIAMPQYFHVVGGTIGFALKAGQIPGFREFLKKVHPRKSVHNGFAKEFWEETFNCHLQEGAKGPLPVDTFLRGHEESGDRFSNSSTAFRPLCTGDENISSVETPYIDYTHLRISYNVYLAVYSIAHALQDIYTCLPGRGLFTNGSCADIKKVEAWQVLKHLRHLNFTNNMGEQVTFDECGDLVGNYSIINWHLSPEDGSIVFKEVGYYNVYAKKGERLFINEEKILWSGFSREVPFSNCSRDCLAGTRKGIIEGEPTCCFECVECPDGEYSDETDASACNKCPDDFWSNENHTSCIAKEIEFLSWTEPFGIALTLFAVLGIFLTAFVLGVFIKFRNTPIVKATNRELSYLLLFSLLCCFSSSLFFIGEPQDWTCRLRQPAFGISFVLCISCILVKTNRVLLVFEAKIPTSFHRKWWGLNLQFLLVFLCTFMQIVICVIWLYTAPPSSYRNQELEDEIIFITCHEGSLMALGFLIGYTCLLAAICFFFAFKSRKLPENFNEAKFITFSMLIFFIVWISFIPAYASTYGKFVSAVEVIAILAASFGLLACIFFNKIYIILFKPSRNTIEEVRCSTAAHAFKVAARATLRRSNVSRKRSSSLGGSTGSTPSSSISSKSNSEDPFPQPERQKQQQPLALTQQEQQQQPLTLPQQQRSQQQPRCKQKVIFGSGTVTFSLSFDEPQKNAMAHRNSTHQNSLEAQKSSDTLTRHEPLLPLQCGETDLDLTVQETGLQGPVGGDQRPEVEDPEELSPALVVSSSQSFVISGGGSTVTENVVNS
Method in brief: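 HEK 293 cells stably expressing human parathyroid Ca2+ receptor (clone 4.0-7), loaded with 2 μM fluo-3 AM for 30 min at 37 °C in parathyroid cell buffer (pH 7.45) with 1 mM CaCl2 and 0.5% BSA. After compound addition, intracellular Ca2+ followed by fluorescence at 485 nm excitation/530 nm emission.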

Compound | EC50 [µM]
COc1cccc([C@@H](C)NCc2cccc(-c3ccccc3F)c2)c1 [(1R)-N-((2′-fluoro-1,1′-biphenyl-3-yl)methyl)-1-(3-(methyloxy)phenyl)ethanamine] | ≤ 10
COc1ccc(CN[C@H](C)c2ccccc2)cc1-c1cncc(C(N)=O)c1 [5-(2-(methyloxy)-5-((((1R)-1-phenylethyl)amino)methyl)phenyl)-3-pyridinecarboxamide] | ≤ 10
COc1ccc(CN[C@H](C)c2cccc3ccccc23)cc1-c1ccc2c(ccn2CC2CC2)c1 [(1R)-N-((3-(1-(cyclopropylmethyl)-1H-indol-5-yl)-4-(methyloxy)phenyl)methyl)-1-(1-naphthalenyl)ethanamine] | ≤ 10
COc1cccc([C@@H](C)NCc2ccc(OC)c(-c3ccc(OC(F)(F)F)cc3)c2)c1 [(1R)-1-(3-(methyloxy)phenyl)-N-((6-(methyloxy)-4′-((trifluoromethyl)oxy)-1,1′-biphenyl-3-yl)methyl)ethanamine] | ≤ 10
COc1cccc([C@@H](C)NCc2ccc(OC)c(-c3ccc4c(ccn4CC4CC4)c3)c2)c1 [(1R)-N-((3-(1-(cyclopropylmethyl)-1H-indol-5-yl)-4-(methyloxy)phenyl)methyl)-1-(3-(methyloxy)phenyl)ethanamine] | ≤ 10
COc1ccc(CN[C@H](C)c2cccc3ccccc23)cc1N1CCCC1 [(1R)-N-((4-(methyloxy)-3-(1-pyrrolidinyl)phenyl)methyl)-1-(1-naphthalenyl)ethanamine] | ≤ 10
COc1ccc(CN[C@H](C)c2cccc3ccccc23)cc1-c1cncc(C(N)=O)c1 [5-(2-(methyloxy)-5-((((1R)-1-(1-naphthalenyl)ethyl)amino)methyl)phenyl)-3-pyridinecarboxamide] | ≤ 10
COc1ccc(CN[C@H](C)c2cccc3ccccc23)cc1-c1ccc(C(F)(F)F)nc1 | ≤ 10
COc1ccc(CN[C@H](C)c2ccccc2)cc1-c1csc(N)n1 [4-(2-(methyloxy)-5-((((1R)-1-phenylethyl)amino)methyl)phenyl)-1,3-thiazol-2-amine] | ≤ 10
COc1ccc(CN[C@H](C)c2cccc3ccccc23)cc1-c1ccc2ccccc2c1 [(1R)-N-((4-(methyloxy)-3-(2-naphthalenyl)phenyl)methyl)-1-(1-naphthalenyl)ethanamine] | ≤ 10
COc1ccc(CN[C@H](C)c2cccc(C#N)c2)cc1-c1ccc(C(F)(F)F)cc1 (stereo in doubt) [3-(1-(((6-(methyloxy)-4′-(trifluoromethyl)-1,1′-biphenyl-3-yl)methyl)amino)ethyl)benzonitrile] | ≤ 10

Continued, values first:

EC50 [µM] | Compound
≤ 10 | COc1ccc(CN[C@H](C)c2cccc3ccccc23)cc1-c1ccc(C(=O)N(C)C)cc1 [N,N-dimethyl-2′-(methyloxy)-5′-((((1R)-1-(1-naphthalenyl)ethyl)amino)methyl)-1,1′-biphenyl-4-carboxamide]
≤ 10 | COc1cccc(-c2cc(CN[C@H](C)c3ccccc3)ccc2OC)c1 [Example 449, (1R)-N-((3′,6-bis(methyloxy)-1,1′-biphenyl-3-yl)methyl)-1-phenylethanamine]
≤ 10 | COc1ccc(-c2cc(CN[C@H](C)c3ccccc3)ccc2OC)nn1 [(1R)-N-((4-(methyloxy)-3-(6-(methyloxy)-3-pyridazinyl)phenyl)methyl)-1-phenylethanamine]
≤ 10 | CCOC(=O)c1ccc(-c2cc(CN[C@H](C)c3ccccc3)ccc2OC)cc1 [ethyl 2′-(methyloxy)-5′-((((1R)-1-phenylethyl)amino)methyl)-1,1′-biphenyl-4-carboxylate]
≤ 10 | COc1ccc(CN[C@H](C)c2ccccc2)cc1-c1nnc(C(F)(F)F)o1 [(1R)-N-((4-(methyloxy)-3-(5-(trifluoromethyl)-1,3,4-oxadiazol-2-yl)phenyl)methyl)-1-phenylethanamine]
≤ 10 | COc1ccc(CN[C@H](C)c2cccc3ccccc23)cc1-c1ccc2nccnc2c1 [(1R)-N-((4-(methyloxy)-3-(6-quinoxalinyl)phenyl)methyl)-1-(1-naphthalenyl)ethanamine]
